Assay results: patent US9517244B2, “Therapeutic combinations for use in neoplasia” (University of Florida Research Foundation, Inc., priority 2011, dated 2016)

Columns and labels:
[1] = test system: HCT-116+ch3 (MMR proficient) xenograft; assay: xenograft model of colon cancer, tumor volume; type: in vivo; conditions: NSC-30049 2.5 mg/kg i.p. + temozolomide 20 mg/kg i.p., day 38
Description: (§1) FIG. 10A is a schematic representation of the experimental protocol. […] Data are the mean±SD of four to six animals in each group.
(§2) Xenograft models of colon cancer were used to test the effect of NSC-30049 as a chemopreventive agent when administered in combination with temozolomide. At day 0, the xenograft host was administered with cells from a colon cancer cell line (HCT-116, MMR deficient; HCT-116+ch3, MMR proficient). Thereafter, temozolomide (20 mg/kg body weight; intraperitoneal) and/or NSC-30049 (2.5 mg/kg body weight; intraperitoneal) were administered to the animals. Tumor growth was evaluated at day 38.

[2] = test system: HCT-116 (MMR deficient) xenograft; assay: xenograft model of colon cancer, tumor volume; type: in vivo; conditions: NSC-30049 2.5 mg/kg i.p. + temozolomide 20 mg/kg i.p., day 38
Description: as §1, §2

[3] = test system: CD133, Nanog, Oct4, Sox2 expression in colon cancer stem cells; assay: qRT-PCR of self-renewal marker genes in colon cancer stem cells; type: cell-based, human; conditions: 1.25 μM NSC-30049 + 1.25 μM OPT, 72 h, compared to either alone
Description: Cells were treated with 1.25 μM of NSC-30049 and 1.25 μM of OPT either alone or in combination for 72 h. Data are mean±SD of triplicate experiments. FIG. 9B depicts the inhibition in expression of self-renewal marker genes of colon cancer stem cells, qRT-PCR data of CD133+, Oct4, Sox2 and Nanog gene expression levels of parental cancer cells and colon cancer stem cells was obtained. Cells were treated with 1.25 μM of NSC-30049 and 1.25 μM of OPT either alone or in combination for 72 h. Fold change in gene expression values is shown as mean±SD of three experiments and are normalized to GAPDH gene expression.
Without being bound to a particular theory, the effect of administration of NSC-30049 in combination with oxaliplatin (OPT) on the expression of self-renewal marker genes of colon cancer stem cells was analyzed. Self-renewal marker genes are highly expressed in colon cancer stem cells compared to human parental cancer cells. qRT-PCR data of CD133+, Oct4, Sox2 and Nanog gene expression levels of parental cancer cells and colon cancer stem cells was obtained (FIG. 9B). Cells were treated with 1.25 μM of NSC-30049 and 1.25 μM of OPT either alone or in combination for 72 h. The fold change in gene expression values is shown as mean±SD of three experiments and were normalized to GAPDH gene expression. […]

PANC1 = assay: MTT assay, pancreatic cancer cell line; type: cell-based, human; conditions: Homo sapiens, PANC-1; PANC1 (dFdC-resistant); single agent; 72 h; read-out: IC50
[4] = test system: Aldh1a1 and Aldh1a7 expression in GBM-L0 stem cells; assay: qRT-PCR of aldehyde dehydrogenase genes in GBM-L0 stem cells; type: cell-based; conditions: 36 h
Description: Cells were pretreated with 2.5 μM of NSC30049 or 10 or 100 μM TMZ alone or in combination with NSC-30049 for 36 h. Then, total RNA was isolated and processed for gRT-PCR. Data presented are the mean±SE of three different measurements. […] Treatment with NSC-30049 or TMZ reduced the expression of aldehyde dehydrogenase gene Aldh1a7 in GBM-LO stem cell line in vitro, but not treatment with NSC-30049 and TMZ. Cells were pretreated with 2.5 μM of NSC30049 or 10 or 100 μM of TMZ alone or in combination with NSC-30049 for 36 h. Then, total RNA was isolated and processed for qRT-PCR. Data presented are the mean±SE of three different measurements.
Without being bound to a particular theory, the effect of administration of NSC-30049 in combination with temozolomide (TMZ) on the expression of self-renewal marker genes of […] was analyzed. Self-renewal marker genes are highly expressed in colon cancer stem cells compared to human parental cancer cells. qRT-PCR data of CD133+, Oct4, Sox2 and Nanog gene expression levels of GBM-L0 stem cells was obtained (FIG. 14A). Cells were pretreated with 2.5 μM of NSC30049 or 10 or 100 μM of TMZ alone or in combination with NSC-30049 for 36 h. Then, total RNA was isolated and processed for qRT-PCR. Data presented are the mean±SE of three different measurements. […]

colon cancer stem cells = assay: cell growth inhibition of colon cancer stem cells; type: cell-based, human; conditions: Homo sapiens, 72 h
Description: Cells were treated with 1.25 μM of NSC-30049 and 1.25 μM of OPT either alone or in combination for 72 h. Data are mean±SD of triplicate experiments. […] Cells were treated with 1.25 μM of NSC-30049 and 1.25 μM of OPT either alone or in combination for 72 h. Fold change in gene expression values is shown as mean±SD of three experiments and are normalized to GAPDH gene expression.
The effect of administration of NSC-30049 in combination with oxaliplatin (OPT) was also examined in human parental cancer cells and colon cancer stem cells (FIG. 9A). Cells were treated with 1.25 μM of NSC-30049 and […] of OPT either alone or in combination for 72 h. Cell growth inhibition was assayed. Data presented are mean±SD of triplicate experiments.

solubility in water = type: physicochemical
Fen1 = Fen1 (Homo sapiens, UniProt P39748); assay: Fen1 activity in vitro; type: biochemical; conditions: 0.5-5 μM; Fen1 1 nM
Sequence of Fen1 (P39748 whole entry, species assumed): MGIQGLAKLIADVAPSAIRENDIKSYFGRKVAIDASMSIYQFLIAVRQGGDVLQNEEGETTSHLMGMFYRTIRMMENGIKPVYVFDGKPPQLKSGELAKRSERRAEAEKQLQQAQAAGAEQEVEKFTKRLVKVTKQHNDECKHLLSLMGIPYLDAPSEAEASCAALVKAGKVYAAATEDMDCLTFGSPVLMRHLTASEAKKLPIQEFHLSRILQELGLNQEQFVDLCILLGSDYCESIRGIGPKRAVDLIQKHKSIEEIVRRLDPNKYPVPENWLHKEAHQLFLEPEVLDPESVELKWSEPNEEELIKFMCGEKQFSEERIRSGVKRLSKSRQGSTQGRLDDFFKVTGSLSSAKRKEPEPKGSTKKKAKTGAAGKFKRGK
Description: Lanes 4-7 contained increasing concentrations of NSC-30049 (0.5, 1, 2.5, and 5 μM, respectively). The arrows indicate the positions of the 63-mer substrate and the products. […] Data are representative of three different experiments.

APE1 = APE1 (Homo sapiens, UniProt P27695); assay: fluorescence anisotropy, APE1 binding to AP-site DNA
Sequence of APE1 (P27695 whole entry): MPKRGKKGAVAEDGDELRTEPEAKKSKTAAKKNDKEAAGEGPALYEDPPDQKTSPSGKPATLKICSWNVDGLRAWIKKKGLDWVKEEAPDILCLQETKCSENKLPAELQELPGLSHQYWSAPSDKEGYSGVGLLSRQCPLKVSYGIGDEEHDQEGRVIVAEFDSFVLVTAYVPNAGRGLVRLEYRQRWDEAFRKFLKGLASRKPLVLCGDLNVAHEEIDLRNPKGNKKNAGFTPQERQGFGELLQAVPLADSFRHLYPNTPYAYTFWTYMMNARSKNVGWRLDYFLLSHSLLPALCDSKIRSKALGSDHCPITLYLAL
Source text: FIGS. 7A and 7B show the effect of NSC-30049 on the APE1 affinity for AP-lesion containing DNA. […] FIG. 7B is a table showing the apparent Kd values of the data. Values are the mean±SD of triplicate estimations.
The small molecule inhibitor (SMI), NSC-30049, was identified as an inhibitor of APE1 endonuclease activity by molecular docking.

ClCC=CC[N+]12CN3CN(CN(C3)C1)C2 [NSC-30049, 1-(4-Chloro-2-butenyl)-1λ˜5˜,3,5,7-tetraazatricyclo[3.3.1.1˜3,7˜]decane]
inhibition of tumor growth (tumor volume) [1]: synergistic effect on the inhibition of tumor growth | inhibition of tumor growth (tumor volume) [2]: synergistic effect on the inhibition of tumor growth | expression of CD133, Nanog, Oct4, and Sox2 [3]: significantly inhibited the expression of CD133, Nanog, Oct4, and Sox2 | IC50 (PANC1): 5.12 ± 0.22 µM | expression of Aldh1a1 ([4]; 2.5 μM NSC-30049 + 10 or 100 μM TMZ): significantly inhibited the expression of Aldh1a1 | expression of Aldh1a7 ([4]; agent alone): inhibited | inhibition at 1.25 µM (colon cancer stem cells; 1.25 μM NSC-30049 in combination with 1.25 μM oxaliplatin): ~80% | inhibition at 1.25 µM (colon cancer stem cells; alone, 1.25 μM): ~10% | solubility in water (solubility in water): readily soluble in water | effect on Fen1 activity (Fen1): did not affect Fen1 activity | binding of APE1 with AP-site DNA (APE1): blocked the binding of APE1 with AP-site DNA in a dose-dependent manner
